What was measured:
Type in all cases: biochemical
[1] = target: Zea mays EPSPS variant 278V (Zea mays, UniProt O24566, T277V); test: EPSPS reaction rate with or without 10 uM glyphosate, 278V; conditions: pH 7; read-out: Reaction rate with 10 μM glyph, % no glyph; also: 50 µM PEP and S3P
[2] = target: Zea mays EPSPS variant Zm-G102A (Zea mays, UniProt O24566, G101A); test: Rapid two-rate method for (kcat/KM)*KI, Zm-G102A; conditions: [E] 0.07 uM, [Gly] 1000 uM
Description: (§1) There are several practical considerations for accurately estimating (kcat/KM)*KI with the rapid method. […] 2) The inhibitor concentration must be adjusted so as to obtain a degree of inhibition that minimally amplifies the error in the term v0-vi in Equation 3. If inhibition is too little, v0-vi will be small, and the error in the multiplier vi×v0/(v0-vi) will be large. […] 3) Substrate concentration should be set at the approximate KM of the parental variant(s), subject to the sensitivity of the assay. High substrate concentration obscures sensitivity to the inhibitor and reduces stringency for capturing improvements in KM. Depending on the necessity for speed, there exists opportunity for customizing enzyme and inhibitor concentrations. […] The rapid method was repeated for those and obtained data that correlated better with data obtained by substrate saturation analysis. For screening purposes however, that correlation step is not necessary. Conditions can be set so that variants with a pre-determined minimal fitness level are accurately quantified.
(§2) In Table 15, parameters above the heavy line for the rapid method were obtained under standard conditions. For variants shown below the heavy line, the rapid analysis was repeated with enzyme or glyphosate concentrations adjusted as needed to generate sufficient signal within the limits for linear initial rates.

[3] = target: T1, Zea mays EPSPS variant Zm-T103A (Zea mays, UniProt O24566, T102A); test: Rapid two-rate method for (kcat/KM)*KI, Zm-T103A; conditions: [E] 0.07 uM, [Gly] 1000 uM
T1 construct: native maize plus T103A; E. coli BL21(DE3), Ni-NTA purified
T1 sequence (O24566 with tags, fused parts or gaps T102A): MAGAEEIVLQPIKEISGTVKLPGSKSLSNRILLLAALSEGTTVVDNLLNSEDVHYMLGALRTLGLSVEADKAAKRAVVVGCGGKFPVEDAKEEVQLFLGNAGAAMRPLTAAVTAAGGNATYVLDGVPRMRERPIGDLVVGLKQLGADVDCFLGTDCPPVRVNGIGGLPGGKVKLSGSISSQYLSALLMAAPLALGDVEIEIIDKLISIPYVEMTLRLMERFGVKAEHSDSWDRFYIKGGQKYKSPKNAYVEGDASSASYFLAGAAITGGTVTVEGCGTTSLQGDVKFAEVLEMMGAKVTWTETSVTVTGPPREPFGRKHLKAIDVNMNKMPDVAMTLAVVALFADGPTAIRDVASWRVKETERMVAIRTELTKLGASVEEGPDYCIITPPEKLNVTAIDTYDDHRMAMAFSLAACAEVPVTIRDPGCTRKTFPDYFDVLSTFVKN
Description: as §1, §2

[4] = target: T2, Zea mays EPSPS variant Zm-H6 (868-H6) with H54E (H6-H54E) (Zea mays, UniProt O24566, A1R/A3W/A415G/A71Q/D401G/E301S/E390G/G101A/H53E/I207L/K83R/L97C/T278A/T360S/T440Q/V437R); test: Substrate saturation kinetic analysis with glyphosate, H6-H54E
T2 construct: 868-H6 plus H54E; E. coli BL21(DE3), Ni-NTA purified
T2 sequence (O24566 with tags, fused parts or gaps A1R/A3W/H53E/A71Q/K83R/L97C/G101A/I207L/T278A/E301S/T360S/E390G/D401G/A415G/V437R/T440Q): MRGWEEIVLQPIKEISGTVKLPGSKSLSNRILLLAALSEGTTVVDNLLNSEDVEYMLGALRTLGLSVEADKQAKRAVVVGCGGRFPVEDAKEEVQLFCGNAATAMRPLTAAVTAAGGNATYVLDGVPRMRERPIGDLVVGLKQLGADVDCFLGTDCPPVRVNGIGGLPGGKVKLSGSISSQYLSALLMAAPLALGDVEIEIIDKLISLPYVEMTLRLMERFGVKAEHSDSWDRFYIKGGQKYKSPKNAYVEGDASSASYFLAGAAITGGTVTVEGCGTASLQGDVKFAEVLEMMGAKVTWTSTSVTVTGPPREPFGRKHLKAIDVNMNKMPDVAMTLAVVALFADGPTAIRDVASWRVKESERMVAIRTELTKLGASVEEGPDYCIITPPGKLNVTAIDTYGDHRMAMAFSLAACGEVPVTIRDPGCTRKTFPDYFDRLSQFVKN

Chain of Zea mays EPSPS variant Zm-G102A (O24566 entry or part of it G101A): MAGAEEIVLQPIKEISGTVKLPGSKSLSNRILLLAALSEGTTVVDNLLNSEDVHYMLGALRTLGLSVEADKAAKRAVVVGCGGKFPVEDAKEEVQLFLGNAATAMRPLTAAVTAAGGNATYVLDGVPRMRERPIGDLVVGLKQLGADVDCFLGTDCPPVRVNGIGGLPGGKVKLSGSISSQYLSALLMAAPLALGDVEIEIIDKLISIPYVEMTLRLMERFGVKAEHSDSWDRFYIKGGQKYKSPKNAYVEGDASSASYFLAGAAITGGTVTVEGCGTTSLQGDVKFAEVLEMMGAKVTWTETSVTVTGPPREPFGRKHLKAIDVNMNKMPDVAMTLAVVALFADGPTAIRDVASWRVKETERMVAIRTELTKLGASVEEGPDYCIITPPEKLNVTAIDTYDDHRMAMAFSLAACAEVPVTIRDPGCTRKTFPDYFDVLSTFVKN
Chain of Zea mays EPSPS variant 278V (O24566 entry or part of it T277V): as the sequence (O24566 entry or part of it G101A) above, with A102G, T278V counted along it

O=C(O)CNCP(=O)(O)O [glyphosate, N-phosphonomethylglycine]
activity at 10 µM [1]: 3.25% | (kcat/KM)*KI [2]: 3596 | (kcat/KM)*KI [3]: 543 | Ki [4]: 488 µM | (kcat/KM)*KI ([4]; substrate saturation, H6-H54E): 4340

Source: patent publication US11549123B2, “Plant EPSP synthases and methods of use” (PIONEER HI-BRED INTERNATIONAL, INC., priority 2015, dated 2023)
